Patent US11897931B2, “MANP analogues” (Mayo Foundation for Medical Education and Research, priority 2016, dated 2024)
Like-named read-outs stand apart in the source and are kept apart here. Each block holds one substance with its values, some of them ahead of it. Bridges are numbered along the chain shown (N, C = ends). Where no end group is shown, it is not given here. [ ]: non-standard residue; d: D form.

Columns and labels:
[1] = tested on: normal dogs; conditions: cited from earlier work
[2] = tested on: Spontaneously hypertensive rats (SHRs); experiment: Acute IV MANP in spontaneously hypertensive rats: BP, plasma and urinary cGMP, natriuresis; assay type: in vivo, rat; conditions: acute IV administration
Procedure: FIGS. 2A-2E are a series of graphs plotting the effect of MANP, administered intravenously at the indicated doses, on mean arterial pressure (FIG. 2A), cGMP levels in plasma (FIG. 2B) and urine (FIG. 2C), distal tubule sodium reabsorption (FIG. 2D), and urinary sodium excretion (FIG. 2E) in spontaneously hypertensive rats.
Spontaneously hypertensive rats (SHRs) were injected with intravenous (IV) MANP or vehicle, and BP, plasma and urinary cGMP, and natriuretic effects were determined.

[3] = target: T1, pGC-A (Homo sapiens, UniProt P16066); experiment: cGMP generation in HEK293 cells overexpressing pGC-A; assay type: cell-based
T1 construct: host or cells: HEK293
T1 sequence (P16066 33-1061): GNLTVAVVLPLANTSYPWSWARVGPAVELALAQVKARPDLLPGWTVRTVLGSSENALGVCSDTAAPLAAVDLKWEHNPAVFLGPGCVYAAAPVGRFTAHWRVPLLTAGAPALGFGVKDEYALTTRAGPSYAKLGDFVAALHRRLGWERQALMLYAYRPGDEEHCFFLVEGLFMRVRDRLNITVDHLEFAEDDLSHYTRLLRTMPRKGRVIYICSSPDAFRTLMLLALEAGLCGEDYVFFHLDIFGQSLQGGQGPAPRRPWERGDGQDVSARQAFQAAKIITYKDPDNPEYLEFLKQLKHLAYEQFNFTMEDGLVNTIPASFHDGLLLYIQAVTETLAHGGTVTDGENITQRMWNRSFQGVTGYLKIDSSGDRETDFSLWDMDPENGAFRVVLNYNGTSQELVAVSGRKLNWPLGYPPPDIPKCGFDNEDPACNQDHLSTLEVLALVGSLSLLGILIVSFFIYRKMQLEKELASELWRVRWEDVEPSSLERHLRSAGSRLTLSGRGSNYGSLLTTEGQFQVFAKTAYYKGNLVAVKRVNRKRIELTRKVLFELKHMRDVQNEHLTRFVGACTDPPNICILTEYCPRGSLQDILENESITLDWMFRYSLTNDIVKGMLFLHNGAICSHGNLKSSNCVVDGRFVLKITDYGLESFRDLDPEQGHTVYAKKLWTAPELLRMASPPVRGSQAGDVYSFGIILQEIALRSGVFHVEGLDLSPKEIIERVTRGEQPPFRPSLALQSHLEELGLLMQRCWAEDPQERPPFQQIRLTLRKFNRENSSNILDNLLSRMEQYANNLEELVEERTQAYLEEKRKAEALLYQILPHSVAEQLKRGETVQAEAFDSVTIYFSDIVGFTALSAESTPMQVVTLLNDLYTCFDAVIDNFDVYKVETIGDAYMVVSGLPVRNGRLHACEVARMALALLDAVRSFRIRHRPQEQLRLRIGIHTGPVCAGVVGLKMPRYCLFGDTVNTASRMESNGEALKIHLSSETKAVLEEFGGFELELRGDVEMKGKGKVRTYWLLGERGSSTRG
Procedure: For in vitro studies, five MANP variants were generated that contained substitutions within the N-terminal region. HEK293 cells overexpressing pGC-A were stimulated with MANP or the five variants (10^−8 M), and intracellular cGMP generation was measured.
(§1) Additional in vitro experiments were conducted using an MANP variant having a tryptophan substitution for the leucine at position 2 of MANP (SWLRRSSCFGGRMDRI GAQSGLGCNSFRYRITA REDKQGWA; SEQ ID NO:15). Human pGC-A and pGC-B cDNA clones were purchased from Origene (Rockville, Md.). HEK293 cells were stably transfected with pGC-A or pGC-B cDNA using LIPOFECTAMINE® (Invitrogen; Grand Island, N.Y.). Transfected cells were maintained in Dulbecco's modified Eagle's medium supplemented with 10% fetal bovine serum, 100 U/ml penicillin, 100 […], and 250 ug/ml G418, and were plated in 6-well plates. pGC-A-transfected cells were treated with MANP or MANP2W, while pGC-B-transfected cells were treated with CNP or MANP2W. Cells were incubated in Hank's balanced salt solution (Invitrogen; Carlsbad, Calif.) containing 20 mmol/LN42-hydroxyethyllpiperazine-N′[2-ethanesulfonic acid], 0.1% bovine serum albumin, and 0.5 mmol/L 3-isobutyl-1-methylzanthine (Sigma; St. Louis, Mo.). Treated cells received 10^−6 M, 10^−8 M, or 10^−10 M of MANP, CNP, or MANP2W peptide for 10 minutes. […]

[4] = tested on: normal canine; experiment: In vivo MANP18 infusion study in a normal canine; conditions: normal dog
Procedure: FIGS. 5A-5G are graphs plotting the effect of MANP18 on mean arterial pressure (MAP; FIG. 5A), heart rate (FIG. 5B), pulmonary wedge capillary pressure (PWCP; FIG. 5C), cardiac output (FIG. 5D), renal blood flow (FIG. 5E), urine output (UV; FIG. 5F), and urinary sodium excretion (UNaV; FIG. 5G) in a normal dog. After a baseline (BL) clearance, MANP18 was infused with saline for a total of 45 minutes, which included a 15-minute lead-in period followed by a 30-minute clearance. After the peptide infusion was discontinued, and four, 30-minute clearances were performed [washout (Wo), recovery 1 (Rec1), recovery 2 (Rec2), and recovery 3 (Rec3)].
FIGS. 6A-6G are graphs plotting the effect of MANP18 on plasma cGMP levels (FIG. 6A), urinary cGMP excretion (FIG. 6B), plasma ANP levels (FIG. 6C), urinary ANP excretion (FIG. 6D), plasma aldosterone levels (FIG. 6E), plasma renin activity (PRA; FIG. 6F), and plasma angiotensin II levels (ANGII; FIG. 6G) in a normal dog. Experiments were conducted as described for FIGS. 5A-5G).
In vivo infusion studies were conducted using MANP18 in a normal canine. The night before the study, the dog was fasted. On the day of the experiment, the dog was anesthetized with pentobarbital sodium (15 mg/kg IV), intubated, and mechanically ventilated with supplemental oxygen (Harvard Respirator; Amersham, Mass.) at 12 cycles/minute. The femoral artery was cannulated for MAP monitoring and blood sampling, and the femoral vein was cannulated for saline infusion. Through a left lateral flank incision, the left kidney was exposed and the ureter was cannulated for urine sampling. Supplemental nonhypotensive doses of pentobarbital were administered as needed during the study. After 60 minutes of equilibrium, a baseline clearance was performed. All clearances consisted of urine collection over 30 minutes. Arterial blood sampling and hemodynamic measurements were measured midway through each clearance. After the baseline clearance, MANP18 was infused with saline at a dose of 33 pmol peptide/kg/min. The peptide was infused for a total of 45 minutes, which included a 15-minute lead-in period followed by a 30-minute clearance. The peptide infusion was then discontinued, and four 30-minute clearances were performed (washout, recovery 1, recovery 2, and recovery 3).

[5] = target: T2, pGC-B (Homo sapiens, UniProt P20594); experiment: cGMP generation in HEK293 cells overexpressing pGC-B; assay type: cell-based; conditions: 10^−6 M, 10^−8 M, or 10^−10 M peptide for 10 minutes, FIG. 7B
T2 construct: host or cells: HEK293
T2 sequence (P20594 23-1047): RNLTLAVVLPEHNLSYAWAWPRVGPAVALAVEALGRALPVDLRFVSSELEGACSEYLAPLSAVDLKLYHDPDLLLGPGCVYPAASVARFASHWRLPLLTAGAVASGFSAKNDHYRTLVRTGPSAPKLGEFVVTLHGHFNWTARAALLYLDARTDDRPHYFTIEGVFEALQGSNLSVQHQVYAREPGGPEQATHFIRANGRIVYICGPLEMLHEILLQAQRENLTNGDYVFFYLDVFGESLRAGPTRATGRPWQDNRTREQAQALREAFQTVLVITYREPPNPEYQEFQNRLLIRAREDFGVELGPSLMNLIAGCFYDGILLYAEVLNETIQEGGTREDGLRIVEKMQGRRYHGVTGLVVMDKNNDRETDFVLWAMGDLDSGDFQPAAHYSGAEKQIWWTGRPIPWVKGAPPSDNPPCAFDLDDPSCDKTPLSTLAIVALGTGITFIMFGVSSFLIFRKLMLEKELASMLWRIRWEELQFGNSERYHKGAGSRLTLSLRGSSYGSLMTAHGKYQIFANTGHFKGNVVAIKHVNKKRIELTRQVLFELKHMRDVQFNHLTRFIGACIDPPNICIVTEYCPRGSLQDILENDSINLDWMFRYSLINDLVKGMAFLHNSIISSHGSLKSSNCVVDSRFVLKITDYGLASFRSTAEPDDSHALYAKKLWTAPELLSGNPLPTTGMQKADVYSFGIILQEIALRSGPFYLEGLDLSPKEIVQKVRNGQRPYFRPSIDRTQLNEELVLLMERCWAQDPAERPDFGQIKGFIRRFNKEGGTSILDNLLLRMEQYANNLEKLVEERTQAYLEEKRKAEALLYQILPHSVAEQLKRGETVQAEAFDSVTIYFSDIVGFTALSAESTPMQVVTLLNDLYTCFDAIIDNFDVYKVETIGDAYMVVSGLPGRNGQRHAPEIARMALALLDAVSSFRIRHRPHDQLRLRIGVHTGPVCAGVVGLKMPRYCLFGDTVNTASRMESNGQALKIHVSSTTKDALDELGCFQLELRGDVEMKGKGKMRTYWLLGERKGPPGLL
Procedure: as §1, with “minutes. After treatment, the cells were lysed in 300 ul 6% ice cold TCA and sonicated for 10 minutes, and the cell lysates were then centrifuged at 4° C., 12,000 g for 10 minutes.” for “minutes.”

[6] = infusion of a high dose, compared to high dose of ANP

Substance: SLRRSSCFGGRMDRIGAQSGLGCNSFRY (listed as Homo sapiens) [ANP, endogenous human mature atrial natriuretic peptide]
glomerular filtration rate (GFR) ([1]; infusion of a low dose): No change
mean arterial pressure (MAP) ([1]; infusion of a low dose): No change

Substance: SLRRSSCFGGRMDRIGAQSGLGCNSFRYRITAREDKQGWA (listed as Homo sapiens) [MANP]
BP (mean arterial pressure) ([2]; FIG. 2A): reduced BP
plasma cGMP generation ([2]; FIG. 2B): increased
urinary cGMP generation ([2]; FIG. 2C): increased
natriuresis (distal tubule sodium reabsorption, urinary sodium excretion) ([2]; FIGS. 2D and 2E): induced natriuresis
diuretic and natriuretic effects compared with ANP [1]: greater diuretic and natriuretic effects than ANP
glomerular filtration rate (GFR) [1, 6]: increased GFR
mean arterial pressure (MAP) [1, 6]: decreased MAP
glomerular filtration rate (GFR) ([1]; infusion of a low dose): No change
mean arterial pressure (MAP) ([1]; infusion of a low dose): No change
effect on renal blood flow compared with ANP ([1]; low dose): greater effect than low dose ANP

Potency vs. MANP ([3]; intracellular cGMP generation, peptide 10^−8 M, HEK293 overexpressing pGC-A): =
Substance: SLRRSSDformCFGGRMDRIGAQSGLGCNSFRYRITAREDKQGWA (SLRRS[dS]CFGGRMDRIGAQSGLGCNSFRYRITAREDKQGWA; disulfide 7-23 (inferred)) [MANP18, MANP with D-serine at the sixth position]
blood pressure (mean arterial pressure) ([4]; 33 pmol peptide/kg/min infused 45 minutes, FIG. 5A): blood pressure lowering
cardiac output ([4]; 33 pmol peptide/kg/min infused 45 minutes, FIG. 5D): cardiac output enhancing
natriuretic action (urinary sodium excretion) ([4]; 33 pmol peptide/kg/min infused 45 minutes, FIG. 5G): natriuretic actions
plasma aldosterone levels ([4]; 33 pmol peptide/kg/min, FIG. 6E): temporarily depressed
plasma renin activity (PRA) ([4]; 33 pmol peptide/kg/min, FIG. 6F): temporarily depressed
plasma angiotensin II levels (ANGII) ([4]; 33 pmol peptide/kg/min, FIG. 6G): temporarily depressed
cGMP (plasma cGMP levels, urinary cGMP excretion) ([4]; 33 pmol peptide/kg/min, FIGS. 6A and 6B): activated cGMP
ANP levels (plasma ANP, urinary ANP excretion) ([4]; 33 pmol peptide/kg/min, FIGS. 6C and 6D): temporarily increased

Substance: SWLRRSSCFGGRMDRI GAQSGLGCNSFRYRITA REDKQGWA (SWLRRSSCFGGRMDRIGAQSGLGCNSFRYRITAREDKQGWA) [MANP2W, MANP variant having a tryptophan substitution for the leucine at position 2 of MANP]
pGC-A activation (cGMP generation) ([3]; 10^−6 M, 10^−8 M, or 10^−10 M peptide for 10 minutes, FIG. 7A): selectively activated pGC-A
pGC-B activation (cGMP generation) [5]: did not activate pGC-B
